For one assay, the target named is T1, D. vulgaris DsrAB (Nitratidesulfovibrio vulgaris, UniProt P45574+P45575).
T1 construct: gene dsvA; native, purified from D. vulgaris cells (Q-Sepharose); heterodimeric DsrAB with siroheme (desulfoviridin)
The experiment in a line: sulfite loss over […] h by HPLC of monobromobimane derivatives; Michaelis-Menten fit. The note with it: H2 / [NiFe] hydrogenase / methyl viologen as electron donor system; 50 mM phosphate pH 7.1; anoxic; 20 or 31 °C (fractionation conditions). The format is biochemical.

Another assay concerns the target T2, A. fulgidus DsrAB (Archaeoglobus fulgidus, UniProt Q59109+Q59110).
T2 construct: gene dsrA; native, purified from A. fulgidus cells; heterodimeric DsrAB with siroheme; free of DsrC
The experiment in a line: closed-system in vitro sulfite reduction; sulfite loss and product accumulation (fuchsin assay, cyanolysis). The format is biochemical. The settings on record: 15 mM initial sulfite; 65 °C; pH 7.1; H2 / [NiFe] hydrogenase / methyl viologen as electron donor system.

T1 sequence (P45574 2-437): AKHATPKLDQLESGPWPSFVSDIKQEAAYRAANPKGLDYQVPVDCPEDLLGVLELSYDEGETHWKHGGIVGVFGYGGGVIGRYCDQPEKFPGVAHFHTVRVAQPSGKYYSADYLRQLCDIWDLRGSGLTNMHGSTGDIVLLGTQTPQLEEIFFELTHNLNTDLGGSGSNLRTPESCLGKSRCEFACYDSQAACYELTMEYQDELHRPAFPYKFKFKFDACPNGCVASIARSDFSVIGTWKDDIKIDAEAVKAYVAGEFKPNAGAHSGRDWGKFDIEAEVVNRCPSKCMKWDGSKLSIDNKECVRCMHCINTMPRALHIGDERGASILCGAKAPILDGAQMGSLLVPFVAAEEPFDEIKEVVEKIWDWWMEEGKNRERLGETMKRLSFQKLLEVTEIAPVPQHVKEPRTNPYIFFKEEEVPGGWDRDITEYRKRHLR
T1 sequence (P45575 2-381): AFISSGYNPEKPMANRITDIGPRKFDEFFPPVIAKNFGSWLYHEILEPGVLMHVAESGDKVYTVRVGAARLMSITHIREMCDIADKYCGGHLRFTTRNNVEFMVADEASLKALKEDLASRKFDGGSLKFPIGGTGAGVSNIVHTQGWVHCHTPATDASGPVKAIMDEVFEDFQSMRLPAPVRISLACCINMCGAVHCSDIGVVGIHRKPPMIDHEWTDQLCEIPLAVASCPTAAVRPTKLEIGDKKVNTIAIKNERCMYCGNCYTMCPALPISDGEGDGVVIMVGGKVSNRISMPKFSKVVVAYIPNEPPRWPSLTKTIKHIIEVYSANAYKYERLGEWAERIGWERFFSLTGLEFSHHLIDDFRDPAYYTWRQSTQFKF
T2 sequence (Q59109 2-418): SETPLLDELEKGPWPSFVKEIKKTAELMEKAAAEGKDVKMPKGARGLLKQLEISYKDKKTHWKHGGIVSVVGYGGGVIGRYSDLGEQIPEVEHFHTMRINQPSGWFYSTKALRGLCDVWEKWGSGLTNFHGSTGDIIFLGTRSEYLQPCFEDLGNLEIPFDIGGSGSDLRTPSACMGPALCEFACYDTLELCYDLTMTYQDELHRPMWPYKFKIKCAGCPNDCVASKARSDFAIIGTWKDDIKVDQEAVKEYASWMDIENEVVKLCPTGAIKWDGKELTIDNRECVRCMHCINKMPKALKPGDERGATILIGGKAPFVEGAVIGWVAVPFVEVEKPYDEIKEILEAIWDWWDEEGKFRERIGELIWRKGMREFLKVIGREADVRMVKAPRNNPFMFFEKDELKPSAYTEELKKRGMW
T2 sequence (Q59110 whole entry): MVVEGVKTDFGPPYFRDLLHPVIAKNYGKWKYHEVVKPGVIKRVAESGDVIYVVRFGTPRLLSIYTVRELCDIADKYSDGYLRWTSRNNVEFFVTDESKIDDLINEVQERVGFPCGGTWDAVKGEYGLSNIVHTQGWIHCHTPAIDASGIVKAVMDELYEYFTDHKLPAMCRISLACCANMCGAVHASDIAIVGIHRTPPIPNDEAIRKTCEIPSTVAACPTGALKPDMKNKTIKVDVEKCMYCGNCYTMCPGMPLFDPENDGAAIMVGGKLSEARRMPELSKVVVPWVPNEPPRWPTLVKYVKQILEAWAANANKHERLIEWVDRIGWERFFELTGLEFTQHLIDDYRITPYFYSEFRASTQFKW

Turning to `O=S(O)O` [sulfite], on D. vulgaris DsrAB, the Km result is “solved for experimental Km and Vmax under our conditions”. The “closed-system in vitro sulfite reduction; sulfite loss and product accumulation” value on A. fulgidus DsrAB is “showed consistent loss of sulfite and accumulation of products between replicates”.

(Values after article PMC4690157, “Sulfur Isotope Effects of Dissimilatory Sulfite Reductase” (Frontiers in Microbiology, 2015).)
